We go through 17 compounds from patent publication US20260317320A1, “C5AR1 ANTAGONISTS AND USES THEREOF” (Vanqua Bio, Inc., priority 2022, published 2026).

The target of assay [1] is T1, complement C5a receptor 1 (C5aR1) (Homo sapiens, UniProt P21730).
T1 construct: β-galactosidase fragment (PathHunter enzyme complementation); host or cells: CHO-K1 (PathHunter CHO-K1 C5aR1 β-arrestin cell line)
T1 sequence (P21730 1-350): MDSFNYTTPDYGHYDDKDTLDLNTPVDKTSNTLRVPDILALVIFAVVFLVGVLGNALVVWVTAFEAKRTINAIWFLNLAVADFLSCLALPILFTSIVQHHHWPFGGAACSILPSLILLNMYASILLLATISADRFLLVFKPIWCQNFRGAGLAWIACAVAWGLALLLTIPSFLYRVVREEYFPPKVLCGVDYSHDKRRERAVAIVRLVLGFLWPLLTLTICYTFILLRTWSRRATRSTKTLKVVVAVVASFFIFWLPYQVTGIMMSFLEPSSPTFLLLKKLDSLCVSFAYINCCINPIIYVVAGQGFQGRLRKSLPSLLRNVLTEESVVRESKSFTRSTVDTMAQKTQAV
The assay is described as follows: β-arrestin recruitment via C5aR1 activation in live CHO-K1 cells (PathHunter), agonist mode. It is filed as cell-based. An outline of the steps:
(§1)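 Live CHO-K1 cells expressing β-galactosidase fragments fused to β-arrestin and C5aR1; recruitment is read by fragment complementation. In agonist mode compounds are tested alone; in antagonist mode they compete against recombinant hC5a at EC90. IC50 reported in binned ranges.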
Background: Recruitment of arrestin is a read-out of receptor activation apart from second messengers.

Assay [2] addresses T1, complement C5a receptor 1 (C5aR1). The assay is described as follows: β-arrestin recruitment via C5aR1 activation in live CHO-K1 cells (PathHunter), antagonist mode. It is filed as cell-based. To be noted: antagonist mode; recombinant hC5a (EC90) as competing natural agonist; live CHO-K1 cells; read-out: [Antagonist] B-arrestin2 recruitment: Average IC50. An outline of the steps:
as §1

Read-outs that look alike come from different tables or passages of the source.

The IC50 is the concentration that inhibits the measured activity by half. `Cc1cnc2cc([C@H]3CC[C@H](c4c(C)cccc4F)CC3)c(=O)n([C@H]3CCC(F)(F)c4nccnc43)c2n1` [174A, 5-((S)-8,8-Difluoro-5,6,7,8-tetrahydroquinoxalin-5-yl)-7-((1r,4S)-4-(2-fluoro-6-methylphenyl)cyclohexyl)-3-methylpyrido[2,3-b]pyrazin-6(5H)-one]: the “[Agonist] B-arrestin2 recruitment: Average EC50 (nM)” value (shortened to “[Agonist] B-arrestin2 recruitment”) in assay [1] (at 10 μM) is “Non-Active at 10 μM”. For the same compound, the concentration for half-maximal inhibition (IC50) in assay [2] fell in the range of 5000 to 100000 nM.
`Cc1cccc(F)c1N1CCC(n2c(=O)c3ccccc3n(Cc3ncccc3C(F)(F)F)c2=O)CC1` [compound 36, 3-(1-(2-Fluoro-6-methylphenyl)piperidin-4-yl)-1-((3-(trifluoromethyl)pyridin-2-yl)methyl)quinazoline-2,4(1H,3H)-dione]: the “[Agonist] B-arrestin2 recruitment” value in assay [1] is “Non-Active”. Besides, the IC50 in assay [2] was in the range of 500 to 5000 nM.
Regarding `Cc1cnc2cc([C@H]3CC[C@H](c4cnccc4C(F)(F)F)CC3)c(=O)n(Cc3ncccc3C(F)(F)F)c2n1` [150B, 3-Methyl-5-((3-(trifluoromethyl)pyridin-2-yl)methyl)-7-((1r,4r)-4-(4-(trifluoromethyl)pyridin-3-yl)cyclohexyl)pyrido[2,3-b]pyrazin-6(5H)-one], the “[Agonist] B-arrestin2 recruitment” value in assay [1] is given as “Non-Active”. The IC50 in assay [2] was < 500 nM.
On the same counts, the results for `COc1cccnc1Cn1c(=O)c([C@H]2CC[C@H](c3c(C)cccc3F)CC2)cc2ncc(C)nc21` [compound 199, 7-((1r,4r)-4-(2-Fluoro-6-methylphenyl)cyclohexyl)-5-((3-methoxypyridin-2-yl)methyl)-3-methylpyrido[2,3-b]pyrazin-6(5H)-one] are “Non-Active” and < 500 nM.
As to `CCc1cnc2c(cc([C@H]3CC[C@H](c4c(C)cccc4F)CC3)c(=O)n2Cc2ncccc2OC(F)(F)F)n1` [compound 215, 2-Ethyl-7-((1r,4r)-4-(2-fluoro-6-methylphenyl)cyclohexyl)-5-((3-(trifluoromethoxy)pyridin-2-yl)methyl)pyrido[2,3-b]pyrazin-6(5H)-one], the “[Agonist] B-arrestin2 recruitment” value in assay [1] (at 10 μM) is “Non-Active at 10 μM”. Also, the IC50 in assay [2] is < 500 nM.
On the same counts, the results for `Cc1ccc2cc([C@H]3CC[C@H](c4cnccc4C(F)(F)F)CC3)c(=O)n(Cc3ncccc3C3CC3)c2n1` [compound 248, 1-((3-Cyclopropylpyridin-2-yl)methyl)-7-methyl-3-((1r,4r)-4-(4-(trifluoromethyl)pyridin-3-yl)cyclohexyl)-1,8-naphthyridin-2(1H)-one] are “Non-Active at 10 μM” and < 500 nM.
For `Cc1ccc2cc([C@H]3CC[C@H](c4c(C)cccc4F)CC3)c(=O)n(Cc3nccnc3OC(F)F)c2n1` [compound 233, 1-((3-(Difluoromethoxy)pyrazin-2-yl)methyl)-3-((1r,4r)-4-(2-fluoro-6-methylphenyl)cyclohexyl)-7-methyl-1,8-naphthyridin-2(1H)-one], in that order: “Non-Active at 10 μM” and < 500 nM.
`Cc1cnc2cc([C@H]3CC[C@H](c4nccs4)CC3)c(=O)n(Cc3ncccc3C(F)(F)F)c2n1` [compound 158, 3-Methyl-7-((1r,4r)-4-(thiazol-2-yl)cyclohexyl)-5-((3-(trifluoromethyl)pyridin-2-yl)methyl)pyrido[2,3-b]pyrazin-6(5H)-one]: the “[Agonist] B-arrestin2 recruitment” value in assay [1] (at 10 μM) is listed as “Non-Active at 10 μM”. Also, the IC50 in assay [2] was 500 to 5000 nM.
On to `Cc1cccc(F)c1N1CCC(c2cc3nccnc3n([C@H]3CCCc4ccccc43)c2=O)CC1` [53b, (S)-7-(1-(2-Fluoro-6-methylphenyl)piperidin-4-yl)-5-(1,2,3,4-tetrahydronaphthalen-1-yl)pyrido[2,3-b]pyrazin-6(5H)-one], for which the “[Agonist] B-arrestin2 recruitment” value in assay [1] is “Non-Active”. Besides, in assay [2], the 50% inhibitory concentration (IC50) lay within 500 to 5000 nM.
On the same counts, the results for `Cc1cccc(F)c1N1CCC(c2cc3nccnc3n(Cc3cnccc3C(F)(F)F)c2=O)CC1` [compound 16, 7-(1-(2-Fluoro-6-methylphenyl)piperidin-4-yl)-5-((4-(trifluoromethyl)pyridin-3-yl)methyl) pyrido[2,3-b]pyrazin-6(5H)-one] are “Non-Active” and < 500 nM.
Turning to `Cc1cnc2cc([C@H]3CC[C@@H](c4c(C)ccnc4F)CC3)c(=O)n(Cc3nccnc3C(F)(F)F)c2n1` [143B, 7-((1s,4s)-4-(2-Fluoro-4-methylpyridin-3-yl)cyclohexyl)-3-methyl-5-((3-(trifluoromethyl)pyrazin-2-yl)methyl)pyrido[2,3-b]pyrazin-6(5H)-one], the “[Agonist] B-arrestin2 recruitment” value in assay [1] is recorded as “Non-Active”. Moreover, the IC50 in assay [2] lay within 500 to 5000 nM.
Regarding `Cc1cnc2cc([C@H]3CC[C@@H](c4c(C)cccc4F)C3)c(=O)n(Cc3ncccc3C(F)F)c2n1` [187A, 5-((3-(Difluoromethyl)pyridin-2-yl)methyl)-7-((1S,3R)-3-(2-fluoro-6-methylphenyl)cyclopentyl)-3-methylpyrido[2,3-b]pyrazin-6(5H)-one], in assay [1] (at 10 μM), the “[Agonist] B-arrestin2 recruitment” value is recorded as “Non-Active at 10 μM”. The IC50 in assay [2] was < 500 nM.
Regarding `COc1nccc(C)c1[C@H]1CC[C@H](c2cc3ccc(C)nc3n(Cc3ncccc3C(C)(F)F)c2=O)CC1` [compound 256, 1-{[3-(1,1-Difluoroethyl)-2-pyridyl]methyl}-7-methyl-3-[(1r,4r)-4-(2-methoxy-4-methyl-3-pyridyl)cyclohexyl]-1,8-diaza-2(1H)-naphthalenone], the “[Agonist] B-arrestin2 recruitment” value in assay [1] was “Non-Active”. The 50% inhibitory concentration (IC50) in assay [2] is < 500 nM.
`Cc1cnc2cc(C3CCN(c4c(C)ccnc4F)CC3)c(=O)n(Cc3nccnc3C(F)(F)F)c2n1` [compound 130, 7-(1-(2-Fluoro-4-methylpyridin-3-yl)piperidin-4-yl)-3-methyl-5-((3-(trifluoromethyl)pyrazin-2-yl)methyl)pyrido[2,3-b]pyrazin-6(5H)-one]: the “[Agonist] B-arrestin2 recruitment” value in assay [1] is listed as “Non-Active”. Also, the IC50 in assay [2] is < 500 nM.
In the case of `O=c1c(C2CCN(c3nccnc3F)CC2)cc2nccnc2n1Cc1ccccc1C(F)(F)F` [compound 34, 7-(1-(3-Fluoropyrazin-2-yl)piperidin-4-yl)-5-(2-(trifluoromethyl)benzyl)pyrido[2,3-b]pyrazine-6(5H)-one], the “[Agonist] B-arrestin2 recruitment” value in assay [1] was “Non-Active”. In assay [2], the half-maximal inhibitory concentration (IC50) was > 100000 nM.
On the same counts, the results for `Cc1cnc2cc(C3CCN(c4c(C)cccc4F)CC3)c(=O)n(Cc3ncccc3C(F)F)c2n1` [compound 138, 5-((3-(Difluoromethyl)pyridin-2-yl)methyl)-7-(1-(2-fluoro-6-methylphenyl)piperidin-4-yl)-3-methylpyrido[2,3-b]pyrazin-6(5H)-one] are “Non-Active” and < 500 nM.
For `COc1nccnc1Cn1c(=O)c(C2CCN(c3c(C)cccc3F)CC2)c(C)c2nccnc21` [compound 3, 7-(1-(2-Fluoro-6-methylphenyl)piperidin-4-yl)-5-((3-methoxypyrazin-2-yl)methyl)-8-methyl pyrido[2,3-b]pyrazin-6(5H)-one], the “[Agonist] B-arrestin2 recruitment” value in assay [1] was “Non-Active”. For the same compound, the half-maximal inhibitory concentration (IC50) in assay [2] fell in the range of 500 to 5000 nM.
